Data taken from the NIST ThermoML archive (doi:10.1016/j.fluid.2014.04.028).

Legend:
[1] = Crystal; DTA
[2] = molar heat capacity at constant pressure; details: 101.33 kPa, Small sample (50 mg) DSC
[3] = Molar enthalpy of transition or fusion; details: Crystal; DSC

Cc1nc2n(c(=O)c1CCN1CCC(c3noc4cc(F)ccc34)CC1)CCCC2 [risperidone]
Details | Molar enthalpy of transition or fusion [kJ/mol] | Normal melting temperature [°C]
[1] | – | 169.23
[3] | 43.9 | –

[2]
Details | molar heat capacity at constant pressure [J/K/mol]
270.1 K, Crystal | 471
275 K, Crystal | 476
280.1 K, Crystal | 480
284.9 K, Crystal | 483
290.1 K, Crystal | 489
294.9 K, Crystal | 495
300.1 K, Crystal | 502
304.9 K, Crystal | 509
310.1 K, Crystal | 516
314.9 K, Crystal | 523
320.1 K, Crystal | 530
324.9 K, Crystal | 537
330.1 K, Crystal | 544
334.9 K, Crystal | 551
340 K, Crystal | 558
345.1 K, Crystal | 564
350 K, Crystal | 571
355.1 K, Crystal | 578
359.9 K, Crystal | 583
365 K, Crystal | 590
370.1 K, Crystal | 597
375 K, Crystal | 602
380.1 K, Crystal | 609
384.9 K, Crystal | 615
390 K, Crystal | 621
394.9 K, Crystal | 627
400 K, Crystal | 634
405.1 K, Crystal | 641
409.9 K, Crystal | 647
430.1 K, Liquid | 839
434.9 K, Liquid | 842
440 K, Liquid | 845
445.1 K, Liquid | 850
449.9 K, Liquid | 854
453 K, Liquid | 856
